Test results: patent US9474281B2, “Fungicidal composition and method for controlling plant diseases” (ISHIHARA SANGYO KAISHA, LTD., priority 2008, dated 2016)
Where “and” joins values, the source holds several entries; their conditions need not be identical. Equal entries are not always repeated.

Legend:
[1] = test system: Erysiphe graminis; experiment: Test on preventive effect against wheat powdery mildew; type: in vivo; parameters: key: lesion area as % of non-treated plot: (treated/non-treated)×100; conditions: applied alone
Protocol: Wheat (cultivar: Norin-61-go) was cultivated in a plastic pot having a diameter of 7.5 cm, and when it reached 1.5-leaf stage, 10 ml of a chemical solution having each test compound adjusted to a prescribed concentration, was applied by a spray gun in an amount of 1000 L/ha. After the chemical solution dried, conidia of Erysiphe graminis were dusted and inoculated and maintained in a constant temperature chamber at 20° C. From 6 to 8 days after the inoculation, the area of sporulation was investigated, and the disease rate was determined in accordance with the following formula, and the results are shown in Tables 1 to 4. The average lesion area in the non-treated plot was determined in the same manner as for the treated plot except that water was applied by a spray gun instead of the chemical solution. Disease rate=(a/b)×100
a: average lesion area in the treated plot
b: average lesion area in the non-treated plot
Theoretical values were calculated in accordance with the Colby's formula. The fungicidal composition of the present invention has a synergistic effect regarding the test on preventive effect against wheat powdery mildew, when the experimental value is lower than the theoretical value. Theoretical values by the Colby's formula in such cases are shown in brackets in Tables 1 to 4.

[2] = test system: Sphaerotheca cucurbitae; experiment: Test on preventive effect against cucumber powdery mildew; type: in vivo; parameters: scale not given here; conditions: applied alone
Protocol: Cucumber (cultivar: Suyo) was cultivated in a plastic pot having a diameter of 7.5 cm, and when it reached 1.5-leaf stage, 10 ml of a chemical solution having the compound of the present invention adjusted to a prescribed concentration, was applied by a spray gun. After the chemical solution dried, a suspension of conidia of Sphaerotheca cucurbitae was sprayed and inoculated and maintained in a constant temperature chamber at 20° C. From 9 to 10 days after the inoculation, the area of sporulation was investigated, and the disease rate was determined in the same manner as in Test Example 1, and the results are shown in Tables 5 to 20. The average lesion area in the non-treated plot was determined in the same manner as for the treated plot except that water was applied by a spray gun instead of the chemical solution.
Further, theoretical values by the Colby's formula are shown in brackets in Tables 5 to 20.

## CC1COC(Cn2cncn2)(c2ccc(Oc3ccc(Cl)cc3)cc2Cl)O1 (stereo not shown) [Difenoconazole]
[1]; 12.5 ppm
  Disease rate: 85
[1]; 25 ppm
  Disease rate: 70
[1]; 50 ppm
  Disease rate: 40

## COc1ccccc1N1CCS/C1=C(/C#N)Sc1cc(C(F)(F)F)ccc1F [flutianil]
[2]; 0.0063 ppm
  Disease rate: 95
[2]; 0.0125 ppm
  Disease rate: 85
[2]; 0.025 ppm
  Disease rate: 65

## C/C=C/C(=O)Oc1c(C(C)CCCCCC)cc([N+](=O)[O-])cc1[N+](=O)[O-] (stereo not shown) [Mepthyldinocap, Meptyldinocap]
[2]; 0.8 ppm
  Disease rate: 75
[2]; 1.6 ppm
  Disease rate: 60
[2]; 3.1 ppm
  Disease rate: 60

## CC1CCN(C2C(c3c(F)cc(F)cc3F)=C(Cl)N=C3N=CNN32)CC1 (stereo not shown) [the compound of the formula (II)]
[2]; 0.8 ppm
  Disease rate: 88.1
[2]; 3.1 ppm
  Disease rate: 17.2
[2]; 6.3 ppm
  Disease rate: 8.6

## COc1cc(C)c(C(=O)c2c(OC)cnc(Cl)c2C(F)(F)F)c(OC)c1OC [Compound No. 40, 4-(2,3,4-trimethoxy-6-methylbenzoyl)-2-chloro-3-trifluoromethyl-5-methoxypyridine]
[1]; 0.8 ppm
  Disease rate: 50
[2]; 1.6 ppm
  Disease rate: 43.0

## CC(C)CC(C)c1sccc1NC(=O)c1cn(C)nc1C(F)(F)F (stereo not shown) [Penthiopyrad]
[2]; 0.4 ppm
  Disease rate: 77.4
[2]; 0.8 ppm
  Disease rate: 51.6
[2]; 1.6 ppm
  Disease rate: 17.2

## CC(=O)Oc1c(C)c(C)nc2c(F)cc(C(C)(C)C)cc12 [6-t-butyl-8-fluoro-2,3-dimethylquinolin-4-yl acetate]
[2]; 6.3 ppm
  Disease rate: 83.6
[2]; 12.5 ppm
  Disease rate: 63.9
[2]; 25 ppm
  Disease rate: 59.0
[2]; 50 ppm
  Disease rate: 34.4

## COC(=O)NCc1cc(/C(C)=N/OCc2cccc(C)n2)ccc1Cl [Pyribencarb]
[2]; 12.5 ppm
  Disease rate: 73.0
[2]; 25 ppm
  Disease rate: 63.2
[2]; 50 ppm
  Disease rate: 63.2

## O=C(Nc1ccccc1-c1ccc(Cl)cc1)c1cccnc1Cl [Boscalid]
[2]; 6.3 ppm
  Disease rate: 43.0
[2]; 12.5 ppm
  Disease rate: 43.0
[2]; 25 ppm
  Disease rate: 25.8

## COc1cc(C)c(C(=O)c2c(Cl)cnc(Cl)c2C(F)(F)F)c(OC)c1OC [Compound No. 39, 4-(2,3,4-trimethoxy-6-methylbenzoyl)-2,5-dichloro-3-trifluoromethylpyridine]
[1]; 1.6 ppm
  Disease rate: 85
[1]; 3.1 ppm
  Disease rate: 75
[1]; 6.3 ppm
  Disease rate: 60

## COc1cc(C)c(C(=O)c2c(OC)ncc(Cl)c2C)c(OC)c1OC [Compound No. 35, 3-(2,3,4-trimethoxy-6-methylbenzoyl)-5-chloro-2-methoxy-4-methylpyridine]
[1]; 0.8 ppm
  Disease rate: 70 and 100
[1]; 1.6 ppm
  Disease rate: 70 and 100
[1]; 3.1 ppm
  Disease rate: 100
[1]; 6.3 ppm
  Disease rate: 60

## S1SSSSSSS1 [sulfur, Sulfur]
[2]; 6.3 ppm
  Disease rate: 98.0
[2]; 12.5 ppm
  Disease rate: 88.2
[2]; 25 ppm
  Disease rate: 68.6

## COC(=O)N(OC)c1ccccc1COc1ccn(-c2ccc(Cl)cc2)n1 [Pyraclostrobin]
[1]; 100 ppm
  Disease rate: 100
[1]; 200 ppm
  Disease rate: 100
[1]; 400 ppm
  Disease rate: 100
